Laboratory results reported in PubChem BioAssay AID330 (DTP/NCI, 2004).
Values joined by “and” are separate entries in the source; they are usually repeats but may differ in a detail not shown here. Identical values can stand only once. Inconclusive results and toxic doses are left out. How the source made its calls: active means survival T/C of 150% or more; inactive means T/C below 125% in these data.

Tested on: P388 leukemia ip, CD2F1 mice, survival T/C
Test: NCI In Vivo Anticancer Drug Screen. Data for tumor model P388 Leukemia (intraperitoneal) in CD2F1 (CDF1) mice
Settings: endpoint: median survival time, higher = longer survival
Summary of the method: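 Mice carrying the transplanted tumor received test compound or vehicle. Survival was recorded in each group, and the value is the treated-group measurement divided by that of the vehicle-treated control group.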

[1] = dose: 50.0 mg/kg/injection, schedule: Q01DX005 (ip), vehicle: saline with Tween-80
[2] = dose: 100.0 mg/kg/injection, schedule: Q01DX005 (ip), vehicle: saline with Tween-80
[3] = dose: 200.0 mg/kg/injection, schedule: Q01DX005 (ip), vehicle: saline with Tween-80
[4] = dose: 60.0 mg/kg/injection, schedule: Q01DX005 (ip), vehicle: saline with Tween-80
[5] = dose: 120.0 mg/kg/injection, schedule: Q01DX005 (ip), vehicle: saline with Tween-80
[6] = dose: 240.0 mg/kg/injection, schedule: Q01DX005 (ip), vehicle: saline with Tween-80
[7] = dose: 25.0 mg/kg/injection, schedule: Q01DX009 (ip), vehicle: distilled water + Tween-80
[8] = dose: 50.0 mg/kg/injection, schedule: Q01DX009 (ip), vehicle: distilled water + Tween-80
[9] = dose: 100.0 mg/kg/injection, schedule: Q01DX009 (ip), vehicle: distilled water + Tween-80
[10] = dose: 200.0 mg/kg/injection, schedule: Q01DX009 (ip), vehicle: distilled water + Tween-80
[11] = dose: 400.0 mg/kg/injection, schedule: Q01DX009 (ip), vehicle: distilled water + Tween-80
[12] = dose: 50.0 mg/kg/injection, schedule: Q01DX009 (ip), vehicle: saline
[13] = dose: 200.0 mg/kg/injection, schedule: Q01DX009 (ip), vehicle: saline
[14] = dose: 50.0 mg/kg/injection, schedule: Q01DX005 (ip), vehicle: Klucel (hydroxypropylcellulose) (HPC)
[15] = dose: 100.0 mg/kg/injection, schedule: Q01DX005 (ip), vehicle: Klucel (hydroxypropylcellulose) (HPC)
[16] = dose: 200.0 mg/kg/injection, schedule: Q01DX005 (ip), vehicle: Klucel (hydroxypropylcellulose) (HPC)

Measured: T/C

CC1(C)CC2C3=CCC4C5(C)CCC(O)C(C)(C)C5CCC4(C)C3(C)CCC2(CO)C(O)C1O (centres undefined)
inactive: dose: 3.25 mg/kg/injection, schedule: Q01DX005 (ip), vehicle: Klucel (hydroxypropylcellulose) (HPC) 99 % of control | dose: 6.5 mg/kg/injection, schedule: Q01DX005 (ip), vehicle: Klucel (hydroxypropylcellulose) (HPC) 99 % of control | dose: 13.0 mg/kg/injection, schedule: Q01DX005 (ip), vehicle: Klucel (hydroxypropylcellulose) (HPC) 99 % of control | dose: 26.0 mg/kg/injection, schedule: Q01DX005 (ip), vehicle: Klucel (hydroxypropylcellulose) (HPC) 98 % of control

O=C(c1cc(Nc2ccnc3cc(Cl)ccc23)ccc1O)N1CCC(O)(c2ccccc2)CC1
inactive: [1] 102 % of control | [2] 108 % of control | [3] 109 % of control

Oc1ccc(Br)cc1C(c1ccc2c(c1)OCO2)N1CCOCC1 (centres undefined)
inactive: [4] 100 % of control | [5] 101 % of control | [6] 102 % of control

Clc1ccc(CCNCc2ccc(Cl)cc2)cc1
inactive: dose: 12.5 mg/kg/injection, schedule: Q01DX005 (ip), vehicle: saline with Tween-80 87 % of control | dose: 25.0 mg/kg/injection, schedule: Q01DX005 (ip), vehicle: saline with Tween-80 97 % of control | [1] 106 % of control and 97 % of control

CC12CCC(S)CC1=CCC1C2CCC2(C)/C(=N/NC(N)=S)CCC12 (centres undefined)
inactive: [7] 105 % of control | [8] 100 % of control | [9] 105 % of control | [10] 98 % of control | [11] 107 % of control

CC1=NN(c2cccc(S(=O)(=O)O)c2)C(=O)C1N=Nc1cc(Cl)cc(S(=O)(=O)O)c1O.O.[Cr] (centres undefined)
inactive: [12] 114 % of control | dose: 100.0 mg/kg/injection, schedule: Q01DX009 (ip), vehicle: saline 108 % of control | [13] 115 % of control

O=C(O)CNC(=O)C(CSCc1ccccc1)NC(=O)OCc1ccccc1 (centres undefined)
inactive: [14] 103 % of control | dose: 50.0 mg/kg/injection, schedule: Q01DX009 (ip), vehicle: saline with Tween-80 101 % of control | [15] 102 % of control | dose: 100.0 mg/kg/injection, schedule: Q01DX009 (ip), vehicle: saline with Tween-80 99 % of control | [16] 100 % of control | dose: 200.0 mg/kg/injection, schedule: Q01DX009 (ip), vehicle: saline with Tween-80 99 % of control

CCOC(=O)c1csc(=S)[nH]1
inactive: [4] 107 % of control | [5] 101 % of control | [6] 100 % of control

CC(C)(C)N1CCC1CN (centres undefined)
inactive: dose: 25.0 mg/kg/injection, schedule: Q01DX005 (ip), vehicle: saline 90 % of control | dose: 50.0 mg/kg/injection, schedule: Q01DX005 (ip), vehicle: saline 100 % of control | dose: 100.0 mg/kg/injection, schedule: Q01DX005 (ip), vehicle: saline 104 % of control | dose: 200.0 mg/kg/injection, schedule: Q01DX005 (ip), vehicle: saline 100 % of control

Sc1cn2ccccc2n1
inactive: dose: 50.0 mg/kg/injection, schedule: Q04DX003 (ip), vehicle: saline 105 % of control | dose: 100.0 mg/kg/injection, schedule: Q04DX003 (ip), vehicle: saline 97 % of control | dose: 200.0 mg/kg/injection, schedule: Q04DX003 (ip), vehicle: saline 103 % of control

CC(C)(C)[Si](C)(C)CC#C[Si](C)(C)C
inactive: [1] 104 % of control | [2] 103 % of control

O=C(Nc1ccc(NC2=NCCN2)cc1)c1cccc(C(=O)Nc2ccc(NC3=NCCN3)cc2)c1
inactive: dose: 5.0 mg/kg/injection, schedule: Q01DX009 (ip), vehicle: saline with Tween-80 109 % of control | dose: 30.0 mg/kg/injection, schedule: Q01DX009 (ip), vehicle: saline with Tween-80 100 % of control

O=NN(CCCl)C(=O)Oc1ccc(F)cc1
inactive: dose: 3.12 mg/kg/injection, schedule: Q01DX001 (ip), vehicle: saline with Tween-80 118 % of control | dose: 6.25 mg/kg/injection, schedule: Q01DX001 (ip), vehicle: saline with Tween-80 116 % of control | dose: 50.0 mg/kg/injection, schedule: Q01DX001 (ip), vehicle: saline with Tween-80 106 % of control

Cn1nc(-c2ccc(S(=O)(=O)F)cc2)s/c1=N/NC(=O)c1ccccc1
inactive: dose: 60.0 mg/kg/injection, schedule: Q01DX005 (ip), vehicle: Klucel + Tween-80 87 % of control | dose: 120.0 mg/kg/injection, schedule: Q01DX005 (ip), vehicle: Klucel + Tween-80 92 % of control

CSc1ccc(NC(=O)Oc2ccccc2I)cc1
inactive: dose: 50.0 mg/kg/injection, schedule: Q01DX009 (ip), vehicle: Klucel (hydroxypropylcellulose) (HPC) 104 % of control | dose: 100.0 mg/kg/injection, schedule: Q01DX009 (ip), vehicle: Klucel (hydroxypropylcellulose) (HPC) 104 % of control | dose: 200.0 mg/kg/injection, schedule: Q01DX009 (ip), vehicle: Klucel (hydroxypropylcellulose) (HPC) 109 % of control

CN1C(=O)/C(=C2\SC(=O)N(CN3CCCCC3)C2=O)c2ccccc21
inactive: [14] 92 % of control | [15] 100 % of control | [16] 99 % of control

CNC(=O)OCc1c(C)oc(-c2ccc(Cl)c(Cl)c2)c1COC(=O)NC
inactive: [7] 102 % of control | [8] 97 % of control | [9] 97 % of control | [10] 91 % of control | [11] 90 % of control

Cc1ccccc1C(C)(O)c1cnc(C)n1Cc1ccccc1 (centres undefined)
inactive: dose: 60.0 mg/kg/injection, schedule: Q01DX005 (ip), vehicle: Klucel (hydroxypropylcellulose) (HPC) 111 % of control | dose: 120.0 mg/kg/injection, schedule: Q01DX005 (ip), vehicle: Klucel (hydroxypropylcellulose) (HPC) 96 % of control | dose: 240.0 mg/kg/injection, schedule: Q01DX005 (ip), vehicle: Klucel (hydroxypropylcellulose) (HPC) 91 % of control

c1ccc(SC2=C(Sc3ccccc3)CC2)cc1
inactive: [1] 102 % of control | [2] 111 % of control | [3] 102 % of control

CC(C(=O)O)c1cccc2c(=O)cc(-c3ccccc3)oc12 (centres undefined)
inactive: [14] 100 % of control | [15] 87 % of control | [16] 109 % of control

CC(CN(C)C)C(/C=C/c1ccc(F)cc1)=N\Nc1ccccc1 (centres undefined)
inactive: [4] 102 % of control | [5] 122 % of control

CCOC(=O)c1ccc(N2C(C(=O)OCC)Nc3ccc(C(=O)OCC)cc3C2C(=O)OCC)cc1 (centres undefined)
inactive: dose: 100.0 mg/kg/injection, schedule: Q04DX002 (ip), vehicle: Klucel (hydroxypropylcellulose) (HPC) 97 % of control | dose: 200.0 mg/kg/injection, schedule: Q04DX002 (ip), vehicle: Klucel (hydroxypropylcellulose) (HPC) 88 % of control

COc1cc2c(c3oc4c(O)cccc4c(=O)c13)CC(C(C)(O)CCl)O2 (centres undefined)
inactive: dose: 2.0 mg/kg/injection, schedule: Q01DX009 (ip), vehicle: saline + alcohol 113 % of control | dose: 4.0 mg/kg/injection, schedule: Q01DX009 (ip), vehicle: saline + alcohol 112 % of control

Cc1cc(C)c(N=Cc2cccs2)c(C)c1
inactive: dose: 12.5 mg/kg/injection, schedule: Q01DX009 (ip), vehicle: saline 107 % of control | dose: 25.0 mg/kg/injection, schedule: Q01DX009 (ip), vehicle: saline 111 % of control | [12] 101 % of control and 106 % of control | [13] 92 % of control

N#CNC1=NC(c2ccccc2O)CC(=O)N1 (centres undefined)
inactive: dose: 100.0 mg/kg/injection, schedule: Q04DX003 (ip), vehicle: suspension in saline 98 % of control | dose: 200.0 mg/kg/injection, schedule: Q04DX003 (ip), vehicle: suspension in saline 105 % of control | dose: 400.0 mg/kg/injection, schedule: Q04DX003 (ip), vehicle: suspension in saline 100 % of control
